Assay [1] concerns the target Mitogen-activated protein kinase 3 (Homo sapiens) (UniProt P27361). Briefly: Inhibition of recombinant human full length GST-tagged ERK1 expressed in Escherichia coli at 500 nM by Z-LYTE assay relative to control.
Assay [2] concerns the target Glycogen synthase kinase-3 alpha (Homo sapiens) (UniProt P49840). The experiment in a line: Inhibition of GSK3alpha (unknown origin) at 500 nM by Z-LYTE assay relative to control.
The target of assay [3] is Rho-associated protein kinase 2 (Homo sapiens) (UniProt O75116). The experiment in a line: Inhibition of recombinant human N-terminal GST-tagged ROCK2 cytoplasmic domain (1 to 552 residues) expressed in baculovirus expression system at 500 nM by Z-LYTE assay relative to control.
Assay [4] addresses Glycogen synthase kinase-3 beta (Homo sapiens) (UniProt P49841). Briefly: Inhibition of recombinant full-length human His-tagged GSK3beta expressed in baculovirus expression system at 500 nM by Z-LYTE assay relative to control.
Assay [5] deals with T1, Calcium/calmodulin-dependent protein kinase type IV (Homo sapiens) (UniProt Q16566).
T1 sequence (whole entry): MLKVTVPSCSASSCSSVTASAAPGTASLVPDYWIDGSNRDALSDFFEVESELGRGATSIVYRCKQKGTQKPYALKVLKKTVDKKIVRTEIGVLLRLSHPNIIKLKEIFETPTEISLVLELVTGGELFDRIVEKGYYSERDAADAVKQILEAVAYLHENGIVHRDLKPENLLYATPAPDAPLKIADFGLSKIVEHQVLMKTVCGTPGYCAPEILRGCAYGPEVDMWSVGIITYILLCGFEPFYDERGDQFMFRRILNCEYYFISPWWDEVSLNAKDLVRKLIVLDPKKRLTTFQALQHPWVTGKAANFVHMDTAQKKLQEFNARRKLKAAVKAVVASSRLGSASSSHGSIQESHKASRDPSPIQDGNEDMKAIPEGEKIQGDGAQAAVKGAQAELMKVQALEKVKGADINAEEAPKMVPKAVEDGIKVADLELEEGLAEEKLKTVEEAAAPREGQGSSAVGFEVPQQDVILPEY
Briefly: Inhibition of recombinant human full length GST-tagged CAMK4 expressed in Escherichia coli at 500 nM by Z-LYTE assay relative to control.

The target of assay [6] is Luciferin 4-monooxygenase (Photinus pyralis, UniProt P08659). Briefly: Inhibition of firefly luciferase activity expressed in HEK293 cells after 18 hrs by luminescence assay. It is filed as cell-based.
Assay [7] has as its target Receptor tyrosine-protein kinase erbB-2 (Homo sapiens) (UniProt P04626). The experiment in a line: Inhibition of recombinant human His-tagged ERBB2 cytoplasmic domain expressed in baculovirus expression system at 500 nM by Z-LYTE assay relative to control.
Assay [8] has as its target Phosphatidylinositol 4,5-bisphosphate 3-kinase catalytic subunit gamma isoform (Homo sapiens) (UniProt P48736). Briefly: Inhibition of recombinant full length human His-tagged PI3K p110ggamma at 500 nM by Z-LYTE assay relative to control.
Assay [9] concerns the target Macrophage colony-stimulating factor 1 receptor (Homo sapiens) (UniProt P07333). The experiment in a line: Inhibition of recombinant human His-tagged CSF1R (538 to 910 residues) expressed in baculovirus expression system at 500 nM by Z-LYTE assay relative to control.
For assay [10], the target named is Nuclear receptor ROR-gamma (Homo sapiens, UniProt P51449). The experiment in a line: Antagonist activity at GAL4-DBD fused human RORgamma LBD expressed in HEK293 cells after 18 hrs by luciferase reporter gene assay. It is filed as cell-based.
Assay [11] addresses Mitogen-activated protein kinase 1 (Homo sapiens) (UniProt P28482). The experiment in a line: Inhibition of recombinant human full length GST-tagged ERK2 expressed in Escherichia coli at 500 nM by Z-LYTE assay relative to control.
The target of assay [12] is T2, Inhibitor of nuclear factor kappa-B kinase subunit beta (Homo sapiens) (UniProt O14920).
T2 sequence (whole entry): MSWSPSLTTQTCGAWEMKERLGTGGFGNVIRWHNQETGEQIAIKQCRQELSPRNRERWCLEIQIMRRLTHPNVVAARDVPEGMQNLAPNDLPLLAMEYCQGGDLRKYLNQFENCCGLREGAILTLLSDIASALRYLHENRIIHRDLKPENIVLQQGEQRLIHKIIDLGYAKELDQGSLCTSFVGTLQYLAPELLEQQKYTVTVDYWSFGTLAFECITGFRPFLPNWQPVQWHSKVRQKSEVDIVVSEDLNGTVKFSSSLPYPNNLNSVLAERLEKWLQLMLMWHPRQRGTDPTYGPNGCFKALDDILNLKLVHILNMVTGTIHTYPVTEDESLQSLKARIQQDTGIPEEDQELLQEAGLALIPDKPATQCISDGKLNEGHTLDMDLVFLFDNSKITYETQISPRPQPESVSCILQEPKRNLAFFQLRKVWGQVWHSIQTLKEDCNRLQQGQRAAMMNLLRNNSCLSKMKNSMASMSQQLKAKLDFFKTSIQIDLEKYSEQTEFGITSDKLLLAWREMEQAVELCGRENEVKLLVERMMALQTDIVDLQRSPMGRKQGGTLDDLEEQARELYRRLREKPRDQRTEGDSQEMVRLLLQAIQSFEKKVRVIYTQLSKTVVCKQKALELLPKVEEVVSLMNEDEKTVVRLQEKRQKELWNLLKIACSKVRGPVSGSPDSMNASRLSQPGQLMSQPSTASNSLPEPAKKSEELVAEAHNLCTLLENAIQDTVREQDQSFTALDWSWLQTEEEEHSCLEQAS
Briefly: Inhibition of recombinant full-length human GST-tagged IKKbeta expressed in baculovirus expression system at 500 nM by Z-LYTE assay relative to control.

Assay [13] deals with Serine/threonine-protein kinase pim-2 (Homo sapiens) (UniProt Q9P1W9). Briefly: Inhibition of recombinant full length human GST-tagged PIM2 expressed in baculovirus expression system at 500 nM by Z-LYTE assay relative to control.
A further assay deals with PBMC. The experiment in a line: Inhibition of IL-5 secretion in anti-human CD3 antibody/anti-human CD28 antibody/IL23-stimulated human PBMC after 48 hrs by ELISA. It is filed as functional, cell-based. In general terms: ELISA stands for enzyme-linked immunosorbent assay.
Assay [14] concerns the target PI3-kinase p110-alpha/p85-alpha (Homo sapiens) (UniProt P27986+P42336). Briefly: Inhibition of recombinant full length human His-tagged PI3K p110alpha/p85alpha at 500 nM by Z-LYTE assay relative to control. It is filed as protein-complex assay.

Chain of Serine/threonine-protein kinase pim-2 (Homo sapiens) (Q9P1W9 whole entry, looked up): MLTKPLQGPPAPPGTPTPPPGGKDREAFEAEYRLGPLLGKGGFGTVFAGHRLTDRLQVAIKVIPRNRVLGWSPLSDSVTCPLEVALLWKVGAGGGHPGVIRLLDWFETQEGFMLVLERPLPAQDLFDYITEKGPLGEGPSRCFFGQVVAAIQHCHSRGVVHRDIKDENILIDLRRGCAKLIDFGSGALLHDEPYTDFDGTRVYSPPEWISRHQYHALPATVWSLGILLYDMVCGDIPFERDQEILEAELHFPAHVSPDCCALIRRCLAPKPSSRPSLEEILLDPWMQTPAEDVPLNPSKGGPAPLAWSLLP
Chain of Rho-associated protein kinase 2 (Homo sapiens) (O75116 whole entry, looked up, the tested form may be a part): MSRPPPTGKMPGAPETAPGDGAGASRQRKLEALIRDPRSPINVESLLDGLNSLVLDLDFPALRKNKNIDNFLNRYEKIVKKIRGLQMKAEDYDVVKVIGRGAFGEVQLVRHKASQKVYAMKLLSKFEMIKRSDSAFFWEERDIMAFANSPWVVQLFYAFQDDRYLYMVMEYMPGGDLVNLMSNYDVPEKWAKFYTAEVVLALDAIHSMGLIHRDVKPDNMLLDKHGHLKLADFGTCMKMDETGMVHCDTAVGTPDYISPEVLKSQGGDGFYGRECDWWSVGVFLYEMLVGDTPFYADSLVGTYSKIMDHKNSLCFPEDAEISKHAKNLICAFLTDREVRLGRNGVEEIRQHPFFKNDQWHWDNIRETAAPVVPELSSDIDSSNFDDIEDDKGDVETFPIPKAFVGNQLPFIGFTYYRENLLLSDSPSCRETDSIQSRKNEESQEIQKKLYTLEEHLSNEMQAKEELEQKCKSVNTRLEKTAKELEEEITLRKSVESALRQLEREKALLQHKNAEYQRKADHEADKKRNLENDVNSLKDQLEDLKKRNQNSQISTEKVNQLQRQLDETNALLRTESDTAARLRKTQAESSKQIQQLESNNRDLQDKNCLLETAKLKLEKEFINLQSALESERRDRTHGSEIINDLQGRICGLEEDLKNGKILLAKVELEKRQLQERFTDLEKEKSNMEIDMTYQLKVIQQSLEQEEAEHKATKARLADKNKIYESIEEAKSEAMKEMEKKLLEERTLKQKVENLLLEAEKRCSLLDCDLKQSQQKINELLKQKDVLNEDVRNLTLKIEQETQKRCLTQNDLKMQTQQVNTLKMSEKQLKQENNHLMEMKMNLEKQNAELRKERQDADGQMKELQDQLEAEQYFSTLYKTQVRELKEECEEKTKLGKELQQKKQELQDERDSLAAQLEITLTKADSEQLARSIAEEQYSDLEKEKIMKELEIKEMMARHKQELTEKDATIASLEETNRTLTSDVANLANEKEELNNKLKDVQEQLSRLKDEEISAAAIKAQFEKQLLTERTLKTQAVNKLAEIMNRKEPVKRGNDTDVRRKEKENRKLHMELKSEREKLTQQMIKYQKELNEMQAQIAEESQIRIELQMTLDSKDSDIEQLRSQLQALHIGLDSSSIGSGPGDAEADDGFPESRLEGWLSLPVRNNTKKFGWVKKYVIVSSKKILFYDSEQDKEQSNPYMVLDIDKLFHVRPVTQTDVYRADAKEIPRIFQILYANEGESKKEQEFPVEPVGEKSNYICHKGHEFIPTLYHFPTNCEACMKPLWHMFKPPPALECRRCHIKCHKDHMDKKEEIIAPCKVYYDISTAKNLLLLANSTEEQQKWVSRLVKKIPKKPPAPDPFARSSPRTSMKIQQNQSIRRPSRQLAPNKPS
Chain of Mitogen-activated protein kinase 1 (Homo sapiens) (P28482 whole entry): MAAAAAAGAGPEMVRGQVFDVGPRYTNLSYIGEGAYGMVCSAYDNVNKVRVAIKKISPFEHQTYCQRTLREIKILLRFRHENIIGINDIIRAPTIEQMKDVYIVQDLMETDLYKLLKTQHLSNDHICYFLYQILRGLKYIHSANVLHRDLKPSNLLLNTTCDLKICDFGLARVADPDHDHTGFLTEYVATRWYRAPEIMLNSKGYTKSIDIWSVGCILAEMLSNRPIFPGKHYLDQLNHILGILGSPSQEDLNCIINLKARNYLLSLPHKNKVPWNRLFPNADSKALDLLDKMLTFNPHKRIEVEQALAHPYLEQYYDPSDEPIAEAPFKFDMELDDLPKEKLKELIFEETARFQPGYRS
Chain of Glycogen synthase kinase-3 alpha (Homo sapiens) (P49840 2-483 limits assumed): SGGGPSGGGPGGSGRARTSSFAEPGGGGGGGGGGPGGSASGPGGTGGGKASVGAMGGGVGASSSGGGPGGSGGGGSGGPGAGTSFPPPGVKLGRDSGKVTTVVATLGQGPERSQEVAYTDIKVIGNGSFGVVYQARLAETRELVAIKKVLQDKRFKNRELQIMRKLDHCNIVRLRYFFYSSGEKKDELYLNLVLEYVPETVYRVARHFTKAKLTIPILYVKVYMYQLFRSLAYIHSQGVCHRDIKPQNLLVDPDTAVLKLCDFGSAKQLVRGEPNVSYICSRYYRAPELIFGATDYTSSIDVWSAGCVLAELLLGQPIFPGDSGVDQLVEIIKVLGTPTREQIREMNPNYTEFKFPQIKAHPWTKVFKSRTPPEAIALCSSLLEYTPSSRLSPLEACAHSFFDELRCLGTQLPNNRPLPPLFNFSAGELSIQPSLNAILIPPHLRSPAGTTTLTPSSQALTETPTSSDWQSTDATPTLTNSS
Chain of Glycogen synthase kinase-3 beta (Homo sapiens) (P49841 whole entry, looked up): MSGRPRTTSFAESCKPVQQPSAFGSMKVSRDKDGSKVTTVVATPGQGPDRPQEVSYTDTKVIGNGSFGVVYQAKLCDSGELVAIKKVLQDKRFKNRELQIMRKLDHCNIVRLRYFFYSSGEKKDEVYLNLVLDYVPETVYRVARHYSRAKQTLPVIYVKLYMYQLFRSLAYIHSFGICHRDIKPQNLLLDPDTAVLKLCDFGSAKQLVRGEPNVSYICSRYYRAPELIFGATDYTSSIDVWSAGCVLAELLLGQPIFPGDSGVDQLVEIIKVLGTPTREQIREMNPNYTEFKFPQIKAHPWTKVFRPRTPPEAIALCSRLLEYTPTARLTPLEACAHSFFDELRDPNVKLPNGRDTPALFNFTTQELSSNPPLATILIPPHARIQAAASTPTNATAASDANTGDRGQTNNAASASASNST
Chain of Phosphatidylinositol 4,5-bisphosphate 3-kinase catalytic subunit gamma isoform (Homo sapiens) (P48736 whole entry, looked up, the tested form may be a part, canonical isoform): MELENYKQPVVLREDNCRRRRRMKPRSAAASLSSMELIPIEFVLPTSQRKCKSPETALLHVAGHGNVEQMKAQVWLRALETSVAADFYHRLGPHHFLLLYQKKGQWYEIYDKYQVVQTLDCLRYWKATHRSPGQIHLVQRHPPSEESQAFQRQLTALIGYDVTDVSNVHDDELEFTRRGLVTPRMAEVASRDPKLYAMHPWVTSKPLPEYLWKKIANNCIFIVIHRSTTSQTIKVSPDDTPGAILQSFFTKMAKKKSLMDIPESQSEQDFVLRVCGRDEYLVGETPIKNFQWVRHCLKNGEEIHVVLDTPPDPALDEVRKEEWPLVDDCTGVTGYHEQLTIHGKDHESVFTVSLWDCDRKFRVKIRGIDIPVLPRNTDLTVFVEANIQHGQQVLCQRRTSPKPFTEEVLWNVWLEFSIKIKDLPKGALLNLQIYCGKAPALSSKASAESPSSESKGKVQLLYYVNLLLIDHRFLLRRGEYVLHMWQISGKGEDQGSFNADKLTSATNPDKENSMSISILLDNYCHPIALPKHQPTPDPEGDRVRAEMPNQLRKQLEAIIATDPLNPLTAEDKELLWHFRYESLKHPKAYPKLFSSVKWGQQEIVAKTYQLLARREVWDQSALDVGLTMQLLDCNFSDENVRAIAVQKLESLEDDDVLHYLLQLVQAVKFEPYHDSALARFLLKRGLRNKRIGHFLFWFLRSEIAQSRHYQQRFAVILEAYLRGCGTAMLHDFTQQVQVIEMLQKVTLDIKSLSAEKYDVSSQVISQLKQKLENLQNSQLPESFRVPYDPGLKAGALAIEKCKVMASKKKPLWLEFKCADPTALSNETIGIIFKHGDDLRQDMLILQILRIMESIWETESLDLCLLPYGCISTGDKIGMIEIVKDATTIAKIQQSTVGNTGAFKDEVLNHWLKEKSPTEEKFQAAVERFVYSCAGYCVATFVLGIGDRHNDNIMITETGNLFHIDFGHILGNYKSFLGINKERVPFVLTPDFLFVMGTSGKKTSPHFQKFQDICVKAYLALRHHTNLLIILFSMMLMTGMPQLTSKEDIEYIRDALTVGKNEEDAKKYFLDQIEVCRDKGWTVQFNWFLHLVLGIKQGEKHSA
Chain of Macrophage colony-stimulating factor 1 receptor (Homo sapiens) (P07333 whole entry, the tested form may be a part): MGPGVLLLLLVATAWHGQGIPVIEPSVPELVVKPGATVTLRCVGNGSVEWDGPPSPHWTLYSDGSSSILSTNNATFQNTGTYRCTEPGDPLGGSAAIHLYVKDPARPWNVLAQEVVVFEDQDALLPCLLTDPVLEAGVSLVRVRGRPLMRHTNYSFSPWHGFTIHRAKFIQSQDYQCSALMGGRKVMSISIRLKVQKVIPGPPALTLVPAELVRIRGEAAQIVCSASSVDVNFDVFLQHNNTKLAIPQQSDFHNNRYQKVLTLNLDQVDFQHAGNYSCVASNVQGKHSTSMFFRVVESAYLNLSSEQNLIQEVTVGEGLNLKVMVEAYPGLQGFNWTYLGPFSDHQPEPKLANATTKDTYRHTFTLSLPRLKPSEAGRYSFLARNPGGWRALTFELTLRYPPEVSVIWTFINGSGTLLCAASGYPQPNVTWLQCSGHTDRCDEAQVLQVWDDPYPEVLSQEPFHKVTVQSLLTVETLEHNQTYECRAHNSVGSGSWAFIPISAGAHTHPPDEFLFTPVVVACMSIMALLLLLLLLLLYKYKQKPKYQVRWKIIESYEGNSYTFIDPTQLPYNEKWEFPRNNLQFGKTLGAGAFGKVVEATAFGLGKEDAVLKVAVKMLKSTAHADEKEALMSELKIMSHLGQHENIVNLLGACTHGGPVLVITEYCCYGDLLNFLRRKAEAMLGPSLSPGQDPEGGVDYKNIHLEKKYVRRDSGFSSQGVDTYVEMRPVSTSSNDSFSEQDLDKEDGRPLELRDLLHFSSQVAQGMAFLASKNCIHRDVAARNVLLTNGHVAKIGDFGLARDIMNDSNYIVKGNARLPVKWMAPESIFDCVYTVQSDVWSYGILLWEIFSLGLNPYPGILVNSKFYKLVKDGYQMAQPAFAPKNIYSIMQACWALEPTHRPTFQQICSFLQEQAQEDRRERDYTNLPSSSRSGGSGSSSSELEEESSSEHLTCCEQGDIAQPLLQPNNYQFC

On to `CCC(=O)Nc1ccc(-c2c[nH]c3ncnc(N[C@H](C)c4ccccc4)c23)cc1`, for which the inhibition in [1] amounted to 0%; in assay [2], 14%; in assay [3], 6%; in assay [4] it was 31%; in assay [5], 5%; in [7] it was 41%. The inhibition in [8] was 1%; in [9], 21%; in assay [11], 6%; in [12] it was 14%; in assay [13] it was 8%. The concentration for half-maximal inhibition (IC50) in assay [6] was found to be 9.1 µM; in [10] it was 4.9 µM.
In the case of `OCc1ccc(-c2cc3c(N[C@H](CO)c4ccccc4)ncnc3[nH]2)cc1`, the inhibition turned out to be 3% in assay [1]; 4% in assay [2]; 6% in assay [3]; 10% in assay [4]; 6% in [5]; 48% in [7]. The inhibition in assay [8] is 4%; in assay [9] it was 96%; in assay [11] it was 9%; in assay [12] it was 11%; in assay [13] it was 10%. In the assay with PBMC, the IC50 worked out at 1.1 µM.
Turning to `OC[C@@H](Nc1ncnc2sc(-c3ccc(O)cc3)cc12)c1ccccc1`, the inhibition is 6% in assay [1]; 9% in assay [2]; 2% in assay [3]; 6% in [4]; -9% in assay [5]; 30% in assay [7]. For the same compound, the inhibition in assay [8] is -2%; in [9] it was 31%; in [14] it was 16%; in [11] it was 7%; in [12] it was 12%; in assay [13], 3%. In addition, in the assay with PBMC, the IC50 fell in the range of 13 to 13.1 µM.
Regarding `CN(C)CCn1cc(-c2cccc(O)c2)c2c(N)ncnc21`, the inhibition in [1] was determined as 0%; in assay [2], 3%; in assay [3], 33%; in assay [4], 7%; in assay [5], 2%; in assay [7], 5%. Also, the inhibition in assay [8] is 5%; in assay [9], 39%; in assay [11] it was 6%; in [12] it was 7%; in assay [13], 5%. Besides, the half-maximal inhibitory concentration (IC50) in [6] and in assay [10] was greater than 10 µM in each case.

Broadly, the inhibition is the change of the read-out against control, counted positive when it falls. As a reminder, the IC50 is the midpoint of a concentration-inhibition curve.
